Marks after values point to notes of the source that are not given here. Square brackets hold non-standard residues; d marks the D form. Ends that are not written are not given here. Peptide text beside a SMILES is read from it. Bip = N[C@@H](Cc1ccc(-c2ccccc2)cc1)C(=O)O; Aib = CC(C)(N)C(=O)O
Columns and labels:
[1] = target: T1, murine NPSR (Mus musculus, UniProt Q8BZP8); assay: Dynamic mass redistribution (DMR) assay in HEK293mNPSR cells; type: cell-based; conditions: for Effect of inhibitor on NPS-evoked DMR response: FR900359 1 μmol L^−1 (60 minute before NPS), PTX 100 ng mL^−1 (24 hours before), rolipram 10 μmol L^−1 (90 minute before); for intrinsic activity α ± SEM / Agonist potency pEC50 (CL95%) / EC50: DMR; for fold less potent than NPS (DMR): agonist potency relative to NPS; for DMR response, HEK293mNPSR pm ± SEM: peak at 60 minute, mean ± SEM, duplicate; for Agonist potency pEC50 (CL95%) / EC50: agonism protocol, 60 minute recording, at least three experiments in duplicate; for EC50: read-out: Agonist potency pEC50 (CL95%) (converted)
T1 construct: expressed in transfected cells
T1 sequence (Q8BZP8 1-371): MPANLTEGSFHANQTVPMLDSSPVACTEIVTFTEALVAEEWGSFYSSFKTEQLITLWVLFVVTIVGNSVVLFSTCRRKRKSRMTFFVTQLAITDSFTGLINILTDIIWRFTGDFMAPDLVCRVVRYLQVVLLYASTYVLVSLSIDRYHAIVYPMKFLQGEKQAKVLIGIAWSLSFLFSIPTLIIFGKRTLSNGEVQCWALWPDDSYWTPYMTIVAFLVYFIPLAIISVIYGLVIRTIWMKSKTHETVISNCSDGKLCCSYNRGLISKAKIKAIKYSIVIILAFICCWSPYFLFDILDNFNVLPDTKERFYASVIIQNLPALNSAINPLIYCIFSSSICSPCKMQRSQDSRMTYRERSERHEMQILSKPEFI
Method: (§1) HEK293 cells stably expressing the murine NPSR receptor (HEK293mNPSR) were described previously.3 Wild‐type HEK293 cells were used as a control. Cells were maintained in Dulbecco's Medium (DMEM) supplemented with 10% fetal bovine serum, 100 U/mL penicillin, 100 μg/mL streptomycin and, 2 mmol L^−1 L‐glutamine. The medium was complemented with 100 mg/L hygromycin for HEK293mNPSR. Cells were cultured at 37°C in 5% CO2 humidified air.
Confluent cells were subcultured using trypsin/EDTA and used for experiments. […] On the day of the experiment, cells were manually washed twice and maintained with assay buffer for 90 minutes before DMR experiments. DMR was monitored in real time with a temporal resolution of 22 seconds throughout the assay. Experiments were performed at 37°C, using an EnSight Multimode Plate Reader (PerkinElmer), that uses the Corning® Epic® Technology to measure the DMR signal. Agonism protocol: a 5‐minute baseline was first established, followed by adding compounds manually in a volume of 10 μL and recording compounds‐triggered DMR signal for 60 minute. Antagonism protocol: antagonists were added manually 25 minute before reading the 5‐minute baseline. After baseline establishment, NPS was injected and DMR signal was recorded for 60 minute. Antagonist properties of ligands were measured by assessing the concentration‐response curve to NPS in the absence and in presence of a fixed concentration of compound. FR900359 was added 60 minute before NPS, rolipram was incubated for 90 minute before NPS, while PTX was added 24 hours before NPS. Maximum picometer (pm) modifications (peak measured at 60 minute time point) were used to determine agonist response after baseline normalization.
All data were analyzed using Graph Pad Prism 6.0 (La Jolla, CA, USA). Concentration‐response curves were fitted using the four parameters log logistic equation. Data are expressed as mean ± SEM of n experiments performed in duplicate and were analyzed using one‐ or two‐way analysis of variance (ANOVA) followed by Dunnett's or Tukey's test for multiple comparisons wherever appropriate. […] Antagonists potencies were assayed at single concentrations against the concentration‐response curve to NPS and their pA2 was derived using the following equation: pA2 = log(CR − 1) − log[A], where CR is the ratio between agonist potency (EC50) in the presence and in absence of antagonist and [A] is the molar concentration of antagonist.

[2] = tested on: wild-type HEK293 cells; assay: DMR assay in wild-type HEK293 cells (control); type: cell-based, Human; conditions: mean ± SEM, duplicate
Method: as §1
Confluent cells were subcultured using trypsin/EDTA and used for experiments. Cells were seeded at a density of 20 000 cells/well in 30 μL into fibronectin‐coated Enspire™‐LC 384‐wells plates and cultured for 20 hours to form a confluent monolayer. On the day of the experiment, cells were manually washed twice and maintained with assay buffer for 90 minutes before DMR experiments. DMR was monitored in real time with a temporal resolution of 22 seconds throughout the assay. Experiments were performed at 37°C, using an EnSight Multimode Plate Reader (PerkinElmer), that uses the Corning® Epic® Technology to measure the DMR signal. Agonism protocol: a 5‐minute baseline was first established, followed by adding compounds manually in a volume of 10 μL and recording compounds‐triggered DMR signal for 60 minute. Antagonism protocol: antagonists were added manually 25 minute before reading the 5‐minute baseline. After baseline establishment, NPS was injected and DMR signal was recorded for 60 minute. Antagonist properties of ligands were measured by assessing the concentration‐response curve to NPS in the absence and in presence of a fixed concentration of compound. FR900359 was added 60 minute before NPS, rolipram was incubated for 90 minute before NPS, while PTX was added 24 hours before NPS. Maximum picometer (pm) modifications (peak measured at 60 minute time point) were used to determine agonist response after baseline normalization.
All data were analyzed using Graph Pad Prism 6.0 (La Jolla, CA, USA). Concentration‐response curves were fitted using the four parameters log logistic equation. Data are expressed as mean ± SEM of n experiments performed in duplicate and were analyzed using one‐ or two‐way analysis of variance (ANOVA) followed by Dunnett's or Tukey's test for multiple comparisons wherever appropriate. Agonist potency was expressed as pEC50, which is the negative logarithm to base 10 of the agonist molar concentration that produces 50% of the maximal possible effect of that agonist. Antagonists potencies were assayed at single concentrations against the concentration‐response curve to NPS and their pA2 was derived using the following equation: pA2 = log(CR − 1) − log[A], where CR is the ratio between agonist potency (EC50) in the presence and in absence of antagonist and [A] is the molar concentration of antagonist.

[3] = ligand 10 μmol L^−1, 37°C, peak at 60 minute after baseline normalization
[4] = ligand 1 μmol L^−1, 37°C, peak at 60 minute

Row | Compound | intrinsic activity α ± SEM ([1]; relative to NPS = 1.00, SEM) | fold less potent than NPS (DMR) [1] | DMR response, HEK293mNPSR pm ± SEM ([1]; ligand 10 μmol L^−1, 37°C) | DMR response, HEK293 pm ± SEM [2, 3] | also measured
1 | Pertussis Toxin [PTX] | – | – | – | – | Effect of inhibitor on NPS-evoked DMR response [1]: did not modify NPS‐evoked DMR response
2 | SFRNGVGTGM [NPS(1‐10)] | 1.09 ± 0.14 | 100 fold | 683 ± 90 ^a pm | 27 ± 6 pm | fold less potent than NPS (DMR) ([1]; listed as NPS (1‐10)): approximately 100 fold
3 | NPS(3‐20): NPS fragment (RNGVGTGMKKTSFQRAKS; Neuropeptide S; UniProt P0C0P6 72-89, looked up, fragment) | – | – | 675 ± 54 ^a pm | 166 ± 14 ^a pm | Agonist potency pEC50 (CL95%) [1]: crc incomplete; intrinsic activity α ± SEM ([1]; relative to NPS = 1.00): crc incomplete; DMR response, HEK293mNPSR pm ± SEM ([1]; ligand 1 μmol L^−1, 37°C): 315 ± 17 ^a pm; DMR response, HEK293 pm ± SEM [2, 4]: 41 ± 14 pm
4 | [D‐Val^5]NPS | – | – | – | – | Agonist potency pEC50 (CL95%) [1]: Inactive; intrinsic activity α ± SEM ([1]; relative to NPS = 1.00): Inactive
5 | C[N+](C)(C)CCOC(N)=O [Carbachol, reference compound] | – | – | – | – | DMR response, HEK293mNPSR pm ± SEM ([1]; ligand 100 μmol L^−1, 37°C): 393 ± 9 ^a pm; DMR response, HEK293 pm ± SEM ([2]; ligand 100 μmol L^−1, 37°C, peak at 60 minute): 480 ± 51 ^a pm
6 | SFRNGVATGMKKTSFQRAKS [[Ala^7]NPS] | 1.03 ± 0.03 | – | 692 ± 15 ^a pm | 115 ± 33 pm | –
7 | CSCC[C@H](NC(=O)CNC(=O)[C@@H](NC(=O)CNC(=O)[C@@H](NC(=O)C(C)(C)NC(=O)[C@H](CC(N)=O)NC(=O)[C@H](CCCNC(=N)N)NC(=O)[C@H](Cc1ccccc1)NC(=O)[C@@H](N)CO)C(C)C)[C@@H](C)O)C(=O)N[C@@H](CCCCN)C(=O)N[C@@H](CCCCN)C(=O)N[C@H](C(=O)N[C@@H](CO)C(=O)N[C@@H](Cc1ccccc1)C(=O)N[C@@H](CCC(N)=O)C(=O)N[C@@H](CCCNC(=N)N)C(=O)N[C@@H](C)C(=O)N[C@@H](CCCCN)C(=O)N[C@@H](CO)C(=O)O)[C@@H](C)O [[Aib^5]NPS] (H-SFRN[Aib]VGTGMKKTSFQRAKS-OH) | – | – | – | – | EC50 [1]: 145 nM
8 | NPS(1‐6): NPS fragment (SFRNGV; Neuropeptide S; UniProt P0C0P6 70-75, looked up, fragment) | – | – | 356 ± 48 ^a pm | 25 ± 10 pm | Agonist potency pEC50 (CL95%) [1]: crc incomplete; intrinsic activity α ± SEM ([1]; relative to NPS = 1.00): crc incomplete
9 | FRNGVGTGMKKTSFQRAKS [NPS(2‐20)] | 1.14 ± 0.05 | approximately 30 fold | 782 ± 46 ^a pm | 70 ± 10 pm | –
10 | SFRNGVGTGMKKTSFQRAKS [NPS, Neuropeptide S] | – | – | – | – | EC50 [1]: 1.66 nM
11 | CSCC[C@H](NC(=O)CNC(=O)[C@@H](NC(=O)CNC(=O)[C@@H](NC(=O)CNC(=O)[C@H](CC(N)=O)NC(=O)[C@H](CCCNC(=N)N)NC(=O)[C@H](Cc1ccc(-c2ccccc2)cc1)NC(=O)[C@@H](N)CO)C(C)C)[C@@H](C)O)C(=O)N[C@@H](CCCCN)C(=O)N[C@@H](CCCCN)C(=O)N[C@H](C(=O)N[C@@H](CO)C(=O)N[C@@H](Cc1ccccc1)C(=O)N[C@@H](CCC(N)=O)C(=O)N[C@@H](CCCNC(=N)N)C(=O)N[C@@H](C)C(=O)N[C@@H](CCCCN)C(=O)N[C@@H](CO)C(=O)O)[C@@H](C)O [[Bip^2]NPS] (H-S[Bip]RNGVGTGMKKTSFQRAKS-OH; N-terminus and C-terminus assumed) | 1.01 ± 0.04 | approximately 30 fold | 761 ± 60 ^a pm | 191 ± 30 ^a pm | DMR response, HEK293mNPSR pm ± SEM ([1]; ligand 1 μmol L^−1, 37°C): 577 ± 2 ^a pm; DMR response, HEK293 pm ± SEM [2, 4]: 47 ± 16 pm
12 | CSCC[C@H](NC(=O)CNC(=O)[C@@H](NC(=O)CNC(=O)[C@@H](NC(=O)[C@@H](C)NC(=O)[C@H](CC(N)=O)NC(=O)[C@H](CCCNC(=N)N)NC(=O)[C@H](Cc1ccccc1)NC(=O)[C@@H](N)CO)C(C)C)[C@@H](C)O)C(=O)N[C@@H](CCCCN)C(=O)N[C@@H](CCCCN)C(=O)N[C@H](C(=O)N[C@@H](CO)C(=O)N[C@@H](Cc1ccccc1)C(=O)N[C@@H](CCC(N)=O)C(=O)N[C@@H](CCCNC(=N)N)C(=O)N[C@@H](C)C(=O)N[C@@H](CCCCN)C(=O)N[C@@H](CO)C(=O)O)[C@@H](C)O [[D‐Ala^5]NPS] (H-SFRN[dA]VGTGMKKTSFQRAKS-OH; N-terminus and C-terminus assumed) | 1.09 ± 0.04 | approximately 30 fold | 686 ± 50 ^a pm | 55 ± 14 pm | –
13 | COc1ccc(C2CNC(=O)C2)cc1OC1CCCC1 (stereo not shown) [rolipram, reference compound] | – | – | – | – | Effect of inhibitor on NPS-evoked DMR response [1]: did not change NPS effects

Source: article PMC6277375, “Pharmacological profile of the neuropeptide S receptor: Dynamic mass redistribution studies” (Pharmacology Research & Perspectives, 2018)
